According to patent publication US20220031680A1, “Donecopride As Neuroprotective Agent In the Treatment of Neurodegenerative Diseases” (priority 2018, published 2022):
Marks after values point to notes of the source that are not given here.

Legend:
Assay type in all cases: in vivo, mouse
[1] = tested on: Aβ40; assay: Aβ40 levels in brain extracts of 5×FAD mice (ELISA); conditions: brain extract; 1 mg/kg i.p. twice a week for two months, 2 to 4 months of age
Experimental: (§1) Animal experiments were carried out in accordance with the Directive by the Council of the European Communities of Nov. 24, 1986 (86/609/EEC). All efforts were made to minimize animal suffering and to reduce the number of mice used. The generation of 5×FAD mice was described in Oakley et al. (2006) J. Neurosci. 26:10129-10140. These transgenic mice overexpress both human APP (695) harboring the Swedish (K670N, M671L), Florida (1716V) and London (V7171) familial AD (FAD) mutations and human Presenilin 1 (PS1) harboring the two FAD mutations M146L and L286V. Expression of both transgenes is regulated by neuronal-specific elements of the mouse Thy1 promoter. The 5×FAD strain (B6/SJL genetic background) was maintained by crossing hemizygous transgenic mice with B6/SJL F1 breeders. The 5×FAD strain (C57BL/6J genetic background) was maintained by crossing hemizygous transgenic mice with C57BL/6J F1 breeders. All animals were genotyped by PCR using tail genomic DNA. Transgenic and WT mice were bred in our animal facility, had access to food and water ad libitum and were housed under a 12 h light-dark cycle at 22-24° C. Female 5×FAD mice were used in this study. For each experiment, the age of mice is indicated in months (with a two-week range).
(§2) Compounds were resuspended in DMSO (37.5 μg/μl, stored at −20° C.) and freshly diluted 1:250 in 0.9% NaCl prior administration. Vehicle solution (0.9% NaCl, 0.4% DMSO) was used as control.
(§3) 5×FAD mice received chronic treatments with drugs or vehicle according to 2 different protocols. In each experiment, drugs or vehicle solution were administered i.p. twice a week (1 mg/kg). In “Protocol 1”, mice (n=6-7 mice per group) were treated with compounds for two months, from 2 to 4 months of age. In “Protocol 2”, mice (n=7) were treated with compounds for three months, from 1 month to 4 months of age. At the end of each protocol, mice were anesthetized with a mixture of 100 mg/kg ketamine and 10 mg/kg xylazine in saline solution and perfused transcardially with PBS. Brains were quickly isolated on ice, the olfactory bulbs and cerebellum removed and the two hemispheres divided. […]
(§4) ELISA kits from IBL International (Hamburg, Germany) for the dosage of Aβ40 (human amyloid β (1-40) assay kit, #27713) or Aβ42 (human amyloid β (1-42) assay kit, #27719) were used according to the manufacturer's instructions. Reactions were read at 620 nm and 450 nm using an Infinite 2000 luminescence counter. The obtained values were normalized to the protein concentration of each sample, measured using a BCA protein assay (Sigma-Aldrich). […]
(§5) Aβ40 and Aβ42 were quantified from brain extract in soluble and insoluble fractions. […]

[2] = tested on: Aβ42; assay: Aβ42 concentration in cerebrospinal fluid of 5×FAD mice; conditions: 1 mg/kg twice a week for 3 months; compared to controls
Experimental: 5×FAD mice received chronic treatments with drugs or vehicle according to 2 different protocols. In each experiment, drugs or vehicle solution were administered i.p. twice a week (1 mg/kg). In “Protocol 1”, mice (n=6-7 mice per group) were treated with compounds for two months, from 2 to 4 months of age. In “Protocol 2”, mice (n=7) were treated with compounds for three months, from 1 month to 4 months of age. At the end of each protocol, mice were anesthetized with a mixture of 100 mg/kg ketamine and 10 mg/kg xylazine in saline solution and perfused transcardially with PBS. Brains were quickly isolated on ice, the olfactory bulbs and cerebellum removed and the two hemispheres divided. One hemisphere was frozen on dry ice and stored at −80° C. for biochemical analysis, while the other was post-fixed in 4% PFA for immunohistochemistry (IHC).
Mice were anesthetized and mounted onto a stereotaxic instrument. The neck skin was cut and subcutaneous tissue and muscles separated with the help of micro-retractors (Fine Science Tools, Heidelberg, Germany). Mice were then laid down so that the head formed an angle of about 135° with the body (Liu and Duff (2008) J. Vis. Exp. 10:960). A capillary tube (Borosilicate glass, B100-75-10, Sutter Instruments, Novato, Calif., USA) was used to punch the dura mater of the cisterna magna. CSF was collected by capillary action and transferred to 0.5 mL microtubes, immediately frozen on dry ice and stored at −80° C. until use. Once thawed, samples were heated at 60° C. for 5 min as described in the international application WO 2008/009868 and analyzed without further freezing-thawing cycles.
as §4

[3] = tested on: Aβ42; assay: Aβ42 levels in brain extracts of 5×FAD mice (ELISA); conditions: brain extract; 1 mg/kg i.p. twice a week for two months, 2 to 4 months of age
Experimental: as §1, §2, §3, §4, §5

Row | SMILES | Aβ40, insoluble fraction (% of controls) [1] | Aβ40, soluble fraction (% of controls) [1] | Aβ42 concentration in cerebrospinal fluid (CSF) [2] | Aβ42, insoluble fraction (% of controls) [3] | Aβ42, soluble fraction (% of controls) [3]
1 | COc1cc(N)c(Cl)cc1C(=O)CCC1CCN(CC2CCCCC2)CC1 [Donecopride] | 79.97 % of controls | 110.18 % of controls | not significantly different | 67.85* % of controls | 65.93* % of controls
2 | COc1cc(N)c(F)cc1C(=O)CCC1CCN(CC2CCCCC2)CC1 [Flucopride] | 97.16 % of controls | 110.51 % of controls | not significantly different | 73.16 % of controls | 30.19**** % of controls
